Where “and” joins values, the source holds several entries; their conditions need not be identical. Equal entries are not always repeated.
System: Arthrobacter sialophilum neuraminidase (NANAase, E.C.3.2.1.18), purified extracellular enzyme
Test: Neuraminidase kinetics and effector tests (release of N-acetylneuraminic acid, citrate-phosphate buffer pH 6.0, 37° C.)
Type: biochemical
Method: Neuraminidase and related assays. The activity of enzyme preparations was determined as follows: A reaction mixture containing 40 μmols of citrate-phosphate buffer, pH 6.0, 1.0 mg of Collocalia mucoid and the enzyme fraction in a final volume of 0.50 ml was incubated at 37° C. Aliquots of 0.20 ml were withdrawn at 5 and 10 minutes, and the N-acetylneuraminic acid determined. In all experiments, zero time points were run for each extract. A unit of enzyme activity is defined as that amount which releases 1 μmol of N-acetylneuraminic acid per minute from the mucoid preparation, under conditions of the standard assay given above. Specific activity is expressed as units/mg of protein. Protein was determined with crystalline bovine serum albumin as standard. N-acetylneuraminate pyruvatelyase assays were carried out.
Enzyme characteristics. Enzyme activity increased linearly with concentration up to 0.28 mg/ml protein. The effect of pH on the activity was examined in citrate-phosphate buffer. A pH activity profile with Collocalia mucoid gave a broad optimum around 5-6. The Km values for Collocalia mucoid and N-acetylneuraminlactose were determined from the kinetic data given as inverse plots. […]

Row | Compound | effect of EDTA on neuraminidase activity (EDTA between 10^-3 M and 10^-2 M, included in the assay mixture or preincubated with the enzyme for 30 min at 37° C.) | Km (apparent Km from inverse plots of kinetic data, purified enzyme, read-out: Km for N-acetylneuraminlactose)
1 | O=C(O)CN(CCN(CC(=O)O)CC(=O)O)CC(=O)O [EDTA] | no effect | 
2 | N-acetylneuraminlactose |  | ~3.3 mM and 3.3 mM
